The values that follow come from EP2549976B1, “SKIN-FRIENDLY ACTIVE INGREDIENT COMBINATION TO COMBAT ACNE” (Beiersdorf AG, priority 2010, dated 2011).

Bounds are passed on as bounds.

One assay deals with P.acnes. The experiment in a line: Suspension test: decline of P. acnes in the formulations after 1 h, 6 h and 24 h (colony count). To be noted: for antimikrobielle Wirksamkeit gegen P.acnes: result in words, suspension test, formulations as composed. It is filed as cell-based, Propionibacterium acnes. As for the experimental part:
Die antimikrobielle Wirksamkeit der erfindungsgemäßen Kombinationen gegen P. acnes wurde zum Vergleich mit verschiedenen Formulierungen untersucht. Dazu wurde in einem Suspensionstest der Rückgang der P.acnes nach 1 h, 6h und 24h beobachtet. Dazu wurden wenige Einzelkolonien einer P.acnes - Kultur in 10mL anaerobem Medium im Impedanzgerät mit dem Programm PR37NT herangezogen. Nach der Wachstumsphase von ca. 18 Stunden wird zur Kontrolle der Keimzahl die OD gemessen, die etwa zwischen 0,3 - 0,5 liegen sollte. Für den Versuch wurden 100µL der gewachsene Kolonie und 100µL autoklaviertes Wasser zu 800mg der zu prüfenden Formulierung gegeben. Die Tests wurden manuell durchgeführt. Zwischen den Abnahmen werden die Proben unter anaeroben Bedingungen (Topf) gelagert. Die Proben wurden jeweils zum Zeitpunkt 1h, 6h und 24h genommen und auf den entsprechenden Agarplatten ausplattiert. Die Platten werden unter anaeroben Bedingungen (Topf) bei 37°C bebrütet. Nach 5 Tagen wurde die Keimzahl bestimmt. Die Abbildungen 1 und 2 zeigen die ermittelten Ergebnisse. Darin umfassen die Formulierung wie folgt • A: 0,5 Gew.% Licochalcone A • B: 0,5 Gew.% Licochalcone A und 0,3 Gew.% 1,2 Decandiol • C: 0,3 Gew.% 1,2 Decandiol • D: 0,5 Gew.% Licochalcone A, 0,3 Gew.% 1,2 Decandiol und 2 Gew.% Carnitin • E: 0,5 Gew.% Licochalcone A, 0,2 Gew.% 1,2 Decandiol und 2 Gew.% Carnitin • F: 0,5 Gew.% Licochalcone A, 0,1 Gew.% 1,2 Decandiol und 2 Gew.% Carnitin • G: 0,3 Gew.%-1,2 Decandiol und 2 Gew.% Carnitin • H: 0,2 Gew.% 1,2 Decandiol und 2 Gew.% Carnitin • I: 0,1 Gew.% 1,2 Decandiol und 2 Gew.% Carnitin

The subject of assay [1] is P. acnes. Conditions: 0,2 % 1,2-Decandiol alone or combined with 1 % Milchsäure, from EP 1598064 A1; cited from earlier work.
The test system of assay [2] is P. acnes. To be noted: gegenüber P. acnes; cited from earlier work.

Take `CCCCCCCCC(O)CO` (stereo not shown) [1,2-Decandiol]: the “Zellzahl reduziert um Faktor” value in the assay on P.acnes (0,3% Decandiol allein) is 4158. Further, the “antimikrobielle Wirksamkeit gegen P.acnes” value with P.acnes is listed as “nur eine schwache antimikrobielle Wirksamkeit”. In the assay with P. acnes [1], the “antibakterielle Wirkung im Suspensionstest” value is recorded as “so gut wie keine antibakterielle Wirkung”.
Take `CC[C@H]1OC(=O)[C@H](C)[C@@H](O[C@H]2C[C@@](C)(OC)[C@@H](O)[C@H](C)O2)[C@H](C)[C@@H](O[C@@H]2O[C@H](C)C[C@H](N(C)C)[C@H]2O)[C@](C)(O)C[C@@H](C)C(=O)[C@H](C)[C@@H](O)[C@]1(C)O` [Erythromycin]: the MHK-Werte in the assay on P. acnes [2] was < 1 pmm.
Turning to `C=CC(C)(C)c1cc(/C=C/C(=O)c2ccc(O)cc2)c(OC)cc1O` [Licochalcone A], the Reduktionsfaktor with P.acnes (0,5% Licochalcone A allein, nach 24h) worked out at 41. Also, in the assay with P.acnes, the “antimikrobielle Wirksamkeit gegen P.acnes” value is “keine antimikrobielle Wirksamkeit”.
Take `CN(C)[C@@H]1C(O)=C(C(N)=O)C(=O)[C@@]2(O)C(O)=C3C(=O)c4c(O)cccc4[C@@](C)(O)[C@H]3C[C@@H]12` [Tetracyclin]: the MHK-Werte in the assay on P. acnes [2] was < 1 pmm.
